Data set [1] deals with breast cancer cell line MDA-MB-231. Conditions: MDA-MB-231, 72 hours, EZ4U MTT (Table 4). As for the experimental part:
(§1) Breast cancer cell line MDA-MB-231 and its corresponding bcrp-overexpressing line MDA-MB-231/bcrp were plated (2×10^3 cells in 100 μl/well) in 96-well plates and allowed to recover for 24 hours. […] The proportion of viable cells was determined by MTT assay following the manufacturer's recommendations (EZ4U, Biomedica, Vienna, Austria), and IC50 values were calculated. […] BCRP-overexpression confers resistance to drugs such as irinotecan, topotecan, mitoxantrone, methotrexate, camptothecins, gefitinib and imatinib etc. See Fojo & Menefee, Ann. Oncol., 18 (Supplement 5):v3-v8 (2007).

The test system of data set [2] is bcrp-overexpressing line MDA-MB-231/bcrp. Conditions: 72 hours, EZ4U MTT. As for the experimental part: as §1
Data set [3] deals with human prostate cancer cell line PC-3 (prostate carcinoma). The text has this:
(§2) In addition, the IC50 values of docetaxel in the LNCaP and PC-3 cell lines were obtained from published literature. […] See Domingo-Domenech et al., Clin. Cancer Res., 12(18):5578-5586 (2006); Blagosklonny et al., J. Urol., 163(3):1022-6 (2000).

Data set [4] relates to human prostate cancer cell line LNCaP (prostate carcinoma). Particulars: same manner as Example 2.
Description: as §2

Data set [5] concerns human renal cell line A498. Conditions: A498, same manner as Example 2. The source says:
See e.g., Mahalingam et al., Clin. Cancer Res., 16(1):141-153 (2010).

The subject of data set [6] is breast cancer cell line MDA-MB-231. Description: ATCC MTT Cell Proliferation Assay, MDA-MB-231. The data set is classed as cell-based. Conditions: for IC50: MDA-MB-231, same manner as Example 2 (Table 3); for IC50 Ratio (MDA-MB-231/MCF-7): ratio of IC50 in MDA-MB-231 to MCF-7.
The subject of data set [7] is human breast cancer cell line MX-1. Description: ATCC MTT Cell Proliferation Assay, MX-1. The data set is classed as cell-based. Conditions: MX-1, 72 hours.
Description: (§6) Stock cultures were allowed to grow to 70-80% confluence for this study. […] ZR-75-1 plates were seeded with 3,000 cells/well, and the cells were grown in RPMI1640 medium containing 1% (1M HEPES), 1% sodium pyruvate, 1% (45% Glucose), 10% FBS and 1% penicillin/strep/glutamine. Cultures were maintained in a 37° C. humidified 5% CO2/95% air atmosphere. […] 100 μl of medium was removed from each well at 72 hours post-treatment and 10 μl MTT reagent was added to each well. The plates were incubated at 37° C. for 4 hours and then 100 μl of detergent was added. The plates were left overnight at room temperature in the dark and was read on a plate reader using SoftMax® Pro (version 5.2, Molecular Devices).
(§7) The absorbance data was analyzed as follows: Absorbance values were converted to Percent of Control and plotted against test agent concentrations for IC50 calculations using SoftMax® Pro (version 5.2, Molecular Devices). […] Percent of Control values were calculated by dividing the absorbance values for each test well by the No Drug Control average (column 11 values; cells+vehicle control) and multiplying by 100. Plots of Compound Concentration versus Percent of Control were analyzed using the 4-parameter equation to obtain IC50 values and other parameters that describe the sigmoidal dose response curve. […]
In data set [8] the test system is human lung carcinoma cell line A549. Description: ATCC MTT Cell Proliferation Assay, A549. The data set is classed as cell-based. Conditions: for IC50 Ratio (A549/H1975): Table 5, ratio of IC50 in A549 to H1975.
Data set [9] deals with breast cancer cell line MCF-7. Description: ATCC MTT Cell Proliferation Assay, MCF-7. The data set is classed as cell-based. Conditions: MCF-7, same manner as Example 2.
Data set [10] has as its system human breast carcinoma cell line ZR-75-1. Description: ATCC MTT Cell Proliferation Assay, ZR-75-1. The data set is classed as cell-based. Conditions: for IC50: ZR-75-1, 72 hours, MTT; for IC50 Ratio (ZR-75-1/MX-1): ratio of IC50 in ZR-75-1 to MX-1.
Description: as §6
The absorbance data was analyzed as follows: Absorbance values were converted to Percent of Control and plotted against test agent concentrations for IC50 calculations using SoftMax® Pro (version 5.2, Molecular Devices). The plate blank signal average was subtracted from all wells prior to calculating the Percent of Control. Percent of Control values were calculated by dividing the absorbance values for each test well by the No Drug Control average (column 11 values; cells+vehicle control) and multiplying by 100. Plots of Compound Concentration versus Percent of Control were analyzed using the 4-parameter equation to obtain IC50 values and other parameters that describe the sigmoidal dose response curve.
The IC50 value for the test agent was estimated by curve-fitting the data using the following four parameter-logistic equation:
wherein “Top” is the maximal % of control absorbance (100%), “Bottom” is the minimal % of control absorbance at the highest agent concentration (down to zero), Y is the Percent of Control absorbance, X is the test agent Concentration, IC50 is the concentration of agent that inhibits cell growth by 50% compared to the control cells, n is the slope of the curve.
In data set [11] the test system is human lung carcinoma cell line H1975. Description: ATCC MTT Cell Proliferation Assay, H1975. The data set is classed as cell-based. Conditions: H1975 (KRAS wild type), same manner as Example 2. The source says: (§3) Table 2 summarizes the results.
The test system of data set [12] is human lung carcinoma cell line NCI-H322M. Description: ATCC MTT Cell Proliferation Assay, NCI-H322M. The data set is classed as cell-based. Conditions: for IC50: NCI-H322M (KRAS wild type), same manner as Example 2.
Description: as §3

The next data set has as its system HCT-116 p53 (−/−). Conditions: Colon HCT-116 p53 (−/−), 72 hours exposure, MTT. As for the experimental part:
(§4) The colon carcinoma cell line HCT116 (HCT-116 p53 (+/+)) and the corresponding subline with deleted p53 genes (HCT-116 p53 (−/−)) were grown in McCoy's culture medium with 10% FCS. […] For cytotoxicity assays, cells were plated (2×10^3 cells in 100 μl/well) in 96-well plates and allowed to recover for 24 hours. […] The proportion of viable cells was determined by MTT assay following the manufacturer's recommendations (EZ4U, Biomedica, Vienna, Austria).

The next data set deals with HCT-116 p53 (+/+). Conditions: Colon HCT-116 p53 (+/+), 72 hours exposure, MTT. How it is done:
as §4

Data set [13] deals with MVP- and MRP1-overexpressing subline SW-1573/2R120. Conditions: PGP/MRP-1-overexpressing cell line (SW-1573/2R120), 72 hours, EZ4U MTT. How it is done: (§5) The alveolar epithelial cell carcinoma cell line SW-1573 and its MVP- and MRP1-overexpressing subline SW-1573/2R120 were grown in DMEM medium supplemented with 10% fetal calf serum. See Elbling et al., Cytometry, 31:187-198 (1998). Cells were plated (2×10^3 cells in 100 μl/well) in 96-well plates and allowed to recover for 24 hours. […] The proportion of viable cells was determined by MTT assay following the manufacturer's recommendations (EZ4U, Biomedica, Vienna, Austria). […] PGP/MRP-1-overexpression confers resistance to drugs such as vincristine, vinblastine, vinorelbine, taxol, docetaxel, etoposide, mitoxantrone, doxorubincin, epirubicin, topotecan, irinotecan, methotrexate, and imatinib etc. See Fojo & Menefee, Ann. Oncol., 18 (Supplement 5):v3-v8 (2007).

For data set [14], the system named is alveolar epithelial cell carcinoma cell line SW-1573. Conditions: SW1573 cell line, 72 hours, EZ4U MTT. As for the experimental part:
as §5

Data set [15] deals with human melanoma cell line A375. In words: ATCC MTT Cell Proliferation Assay, A375.
Description: as §6, §7
Data set [16] deals with PC-3 cell line. Particulars: PC-3, from Domingo-Domenech et al. 2006; cited from earlier work.
The test system of data set [17] is PC-3 cell line. Description: Published literature IC50 of docetaxel, PC-3. Particulars: ratio from published literature IC50 values. The data set is classed as cell-based, human.
For another data set, the system named is LNCaP cell line. Particulars: from Domingo-Domenech et al. 2006; cited from earlier work.

Like-named read-outs stand apart in the source and are kept apart here.

As usually defined, the IC50 is the point on the concentration scale where inhibition reaches its midpoint.

As for `[Ga+3].[O-]c1cccc2cccnc12.[O-]c1cccc2cccnc12.[O-]c1cccc2cccnc12`, the half-inhibitory concentration (IC50) in data set [1] is 1600 nM; in [2] it was 1800 nM; in [3] (PC-3, same manner as Example 2), 1790 nM; in data set [4] it was 2190 nM; in [5], 32900 nM; in [6], 838 nM. The IC50 in data set [7] was determined as 2060 nM; in data set [8] (A549 (KRAS G12S), same manner as Example 2) it was 1110 nM; in data set [9], 1230 nM; in data set [10], 1590 nM; in data set [11] it was 3550 nM; in data set [12], 4950 nM. Also, the concentration for half-maximal inhibition (IC50) is 1700 nM in the data set on HCT-116 p53 (−/−); 1800 nM in the data set on HCT-116 p53 (+/+); 2100 nM in [13]; 1700 nM in data set [14]; 1950 nM in data set [15] (A375, same manner as Example 2). The “IC50 Ratio (PC-3/LNCaP)” value in data set [3] (ratio of IC50 in PC-3 to LNCaP) worked out at 0.82. In data set [6], the “IC50 Ratio (MDA-MB-231/MCF-7)” value amounted to 0.681. Besides, the “IC50 Ratio (A549/H1975)” value in [8] is recorded as 0.31; in data set [12] (Table 6, Test Drug column, row NCI-H322M), 1.39. Moreover, the “IC50 Ratio (ZR-75-1/MX-1)” value in data set [10] was 0.77.

Turning to `CC(=O)O[C@H]1C(=O)[C@@]2(C)[C@H]([C@H](OC(=O)c3ccccc3)[C@]3(O)C[C@H](OC(=O)[C@H](O)[C@@H](NC(=O)c4ccccc4)c4ccccc4)C(C)=C1C3(C)C)[C@]1(OC(C)=O)CO[C@@H]1C[C@@H]2O` [Paclitaxel, paclitaxel, reference compound], the “IC50 Ratio (A549/H1975)” value in data set [8] is on record as 1984. The same compound came in with a half-maximal inhibitory concentration (IC50) in data set [11] (Homo sapiens, NCI-H1975) of 5 nM.

Regarding `N.N.[Cl][Pt][Cl]` [Cisplatin, cisplatin, reference compound], the 50% inhibitory concentration (IC50) in data set [6] stood at 47100 nM; in data set [9] it was 8010 nM; in [11] it was 11400 nM; in data set [12], 52300 nM. The “IC50 Ratio (MDA-MB-231/MCF-7)” value in data set [6] is reported as 5.88. For the same compound, the “IC50 Ratio (NCI-H322M/H1975)” value in data set [12] (Table 6, cisplatin column) was found to be 4.59.

In data set [15] (Homo sapiens, A-375), `Cn1nnc2c(C(N)=O)ncn2c1=O` [temozolomide, reference compound] came in with an IC50 of 369000 nM.

With `O=c1[nH]cc(F)c(=O)[nH]1` [5-FU, 5-fluorouracil, reference compound], the values for the half-maximal inhibitory concentration (IC50) in data set [7] (Homo sapiens) and in data set [10] (Homo sapiens) were 1470 nM and 31100 nM, respectively. For the same compound, the “IC50 Ratio (ZR-75-1/MX-1)” value in [10] is on record as 21.2.

On to `CC(=O)O[C@@]12CO[C@@H]1C[C@H](O)[C@@]1(C)C(=O)[C@H](O)C3=C(C)[C@@H](OC(=O)[C@H](O)[C@@H](NC(=O)OC(C)(C)C)c4ccccc4)C[C@@](O)([C@@H](OC(=O)c4ccccc4)[C@H]21)C3(C)C` [Docetaxel, docetaxel], for which the half-inhibitory concentration (IC50) was 50 to 60 nM in the data set on PC-3 cell line [16] and 2.5 to 5 nM with LNCaP cell line. The “IC50 Ratio (PC-3/LNCaP/)” value with PC-3 cell line [17] is 12-20.

The values are drawn from patent publication US20140005160A1, “Method for Treating Refractory Cancer” (priority 2010, published 2014).
